The record followed here is patent US20250120967A1, “TYROSINE KINASES INHIBITORS AND USES THEREOF” (GREAT NOVEL THERAPEUTICS BIOTECH & MEDICALS CORPORATION, priority 2023, published 2025).

Assay in all cases: Tyrosine kinase inhibition assay
Holding throughout (type): biochemical
What all share (details): single concentration 1.0 μM, read-out: percent inhibition

One test concerns the target T1, MAP4K3 (GLK) (Homo sapiens, UniProt Q8IVH8).
T1 sequence (Q8IVH8 1-894): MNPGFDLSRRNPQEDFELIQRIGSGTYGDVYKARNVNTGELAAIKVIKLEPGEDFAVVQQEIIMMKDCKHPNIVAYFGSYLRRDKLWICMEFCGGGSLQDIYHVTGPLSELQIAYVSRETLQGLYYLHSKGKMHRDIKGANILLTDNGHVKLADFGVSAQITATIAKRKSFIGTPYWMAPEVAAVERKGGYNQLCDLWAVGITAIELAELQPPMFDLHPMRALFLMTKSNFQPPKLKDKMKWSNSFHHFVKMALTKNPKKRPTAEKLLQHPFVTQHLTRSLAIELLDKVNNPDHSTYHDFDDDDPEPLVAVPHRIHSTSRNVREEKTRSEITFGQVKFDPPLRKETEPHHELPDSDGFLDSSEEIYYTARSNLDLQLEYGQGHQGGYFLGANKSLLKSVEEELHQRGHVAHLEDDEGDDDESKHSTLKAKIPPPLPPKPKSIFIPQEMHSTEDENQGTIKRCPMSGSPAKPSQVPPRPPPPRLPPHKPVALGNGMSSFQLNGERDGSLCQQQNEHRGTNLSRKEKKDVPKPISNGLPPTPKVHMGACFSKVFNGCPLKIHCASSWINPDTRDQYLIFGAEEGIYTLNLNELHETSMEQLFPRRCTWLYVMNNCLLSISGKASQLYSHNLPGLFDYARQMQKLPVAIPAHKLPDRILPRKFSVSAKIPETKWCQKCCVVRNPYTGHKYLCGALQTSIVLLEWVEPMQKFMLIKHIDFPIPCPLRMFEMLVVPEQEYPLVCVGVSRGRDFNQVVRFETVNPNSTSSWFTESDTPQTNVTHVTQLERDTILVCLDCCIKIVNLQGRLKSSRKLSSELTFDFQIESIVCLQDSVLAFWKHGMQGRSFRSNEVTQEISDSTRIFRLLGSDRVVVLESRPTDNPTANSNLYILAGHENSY
In short, it runs like this:
(§1)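 Percent inhibition from a one-concentration (1.0 μM) Z′-LYTE biochemical screen at apparent-Km ATP; >80% scored as a hit.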

In the next test the target is T2, MUSK (Homo sapiens, UniProt O15146).
T2 sequence (O15146 24-869): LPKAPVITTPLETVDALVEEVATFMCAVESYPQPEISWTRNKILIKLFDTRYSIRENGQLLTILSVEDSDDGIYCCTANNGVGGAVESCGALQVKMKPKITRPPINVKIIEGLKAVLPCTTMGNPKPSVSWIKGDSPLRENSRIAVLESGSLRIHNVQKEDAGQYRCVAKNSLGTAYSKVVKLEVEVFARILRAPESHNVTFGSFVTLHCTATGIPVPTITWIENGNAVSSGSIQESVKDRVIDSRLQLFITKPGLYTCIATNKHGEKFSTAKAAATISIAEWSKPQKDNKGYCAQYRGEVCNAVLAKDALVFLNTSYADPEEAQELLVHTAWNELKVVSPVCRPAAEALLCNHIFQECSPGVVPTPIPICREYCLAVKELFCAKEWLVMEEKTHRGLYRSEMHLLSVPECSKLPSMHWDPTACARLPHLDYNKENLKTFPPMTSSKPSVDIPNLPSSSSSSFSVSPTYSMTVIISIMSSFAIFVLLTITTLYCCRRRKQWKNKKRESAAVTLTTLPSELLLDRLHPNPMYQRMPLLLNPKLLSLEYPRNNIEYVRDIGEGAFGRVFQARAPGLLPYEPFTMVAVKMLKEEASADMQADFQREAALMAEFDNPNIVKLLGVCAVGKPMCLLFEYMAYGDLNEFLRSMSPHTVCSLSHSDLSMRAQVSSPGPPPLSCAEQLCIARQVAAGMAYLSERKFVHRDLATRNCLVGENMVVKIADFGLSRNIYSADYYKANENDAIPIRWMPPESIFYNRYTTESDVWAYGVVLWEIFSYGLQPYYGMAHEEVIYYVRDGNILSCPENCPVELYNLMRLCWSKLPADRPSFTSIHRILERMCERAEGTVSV
In short, it runs like this: as §1

For another test, the target named is PIK3CG (p110 gamma) (Homo sapiens, UniProt P48736). In short, it runs like this: as §1
The next test has as its target T3, TEC (Homo sapiens, UniProt P42680).
T3 sequence (P42680 1-631): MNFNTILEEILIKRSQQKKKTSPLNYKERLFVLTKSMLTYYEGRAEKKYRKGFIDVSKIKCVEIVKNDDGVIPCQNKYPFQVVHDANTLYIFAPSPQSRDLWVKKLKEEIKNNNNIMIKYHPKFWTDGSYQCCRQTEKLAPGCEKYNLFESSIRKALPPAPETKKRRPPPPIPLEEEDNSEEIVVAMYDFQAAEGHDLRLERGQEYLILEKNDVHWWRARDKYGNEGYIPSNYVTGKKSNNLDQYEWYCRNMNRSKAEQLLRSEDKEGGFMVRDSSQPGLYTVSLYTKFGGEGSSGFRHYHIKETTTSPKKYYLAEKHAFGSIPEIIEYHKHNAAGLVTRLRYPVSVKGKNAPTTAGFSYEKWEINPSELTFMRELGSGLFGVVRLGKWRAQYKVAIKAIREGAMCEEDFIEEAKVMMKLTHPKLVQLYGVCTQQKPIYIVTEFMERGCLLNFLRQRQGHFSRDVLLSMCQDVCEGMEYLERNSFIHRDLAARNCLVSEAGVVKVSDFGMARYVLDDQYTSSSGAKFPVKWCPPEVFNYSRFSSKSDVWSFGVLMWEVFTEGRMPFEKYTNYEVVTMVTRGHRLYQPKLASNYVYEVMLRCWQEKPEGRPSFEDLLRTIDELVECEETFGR
Put shortly: as §1

PIK3CG (p110 gamma), sequence (P48736 whole entry): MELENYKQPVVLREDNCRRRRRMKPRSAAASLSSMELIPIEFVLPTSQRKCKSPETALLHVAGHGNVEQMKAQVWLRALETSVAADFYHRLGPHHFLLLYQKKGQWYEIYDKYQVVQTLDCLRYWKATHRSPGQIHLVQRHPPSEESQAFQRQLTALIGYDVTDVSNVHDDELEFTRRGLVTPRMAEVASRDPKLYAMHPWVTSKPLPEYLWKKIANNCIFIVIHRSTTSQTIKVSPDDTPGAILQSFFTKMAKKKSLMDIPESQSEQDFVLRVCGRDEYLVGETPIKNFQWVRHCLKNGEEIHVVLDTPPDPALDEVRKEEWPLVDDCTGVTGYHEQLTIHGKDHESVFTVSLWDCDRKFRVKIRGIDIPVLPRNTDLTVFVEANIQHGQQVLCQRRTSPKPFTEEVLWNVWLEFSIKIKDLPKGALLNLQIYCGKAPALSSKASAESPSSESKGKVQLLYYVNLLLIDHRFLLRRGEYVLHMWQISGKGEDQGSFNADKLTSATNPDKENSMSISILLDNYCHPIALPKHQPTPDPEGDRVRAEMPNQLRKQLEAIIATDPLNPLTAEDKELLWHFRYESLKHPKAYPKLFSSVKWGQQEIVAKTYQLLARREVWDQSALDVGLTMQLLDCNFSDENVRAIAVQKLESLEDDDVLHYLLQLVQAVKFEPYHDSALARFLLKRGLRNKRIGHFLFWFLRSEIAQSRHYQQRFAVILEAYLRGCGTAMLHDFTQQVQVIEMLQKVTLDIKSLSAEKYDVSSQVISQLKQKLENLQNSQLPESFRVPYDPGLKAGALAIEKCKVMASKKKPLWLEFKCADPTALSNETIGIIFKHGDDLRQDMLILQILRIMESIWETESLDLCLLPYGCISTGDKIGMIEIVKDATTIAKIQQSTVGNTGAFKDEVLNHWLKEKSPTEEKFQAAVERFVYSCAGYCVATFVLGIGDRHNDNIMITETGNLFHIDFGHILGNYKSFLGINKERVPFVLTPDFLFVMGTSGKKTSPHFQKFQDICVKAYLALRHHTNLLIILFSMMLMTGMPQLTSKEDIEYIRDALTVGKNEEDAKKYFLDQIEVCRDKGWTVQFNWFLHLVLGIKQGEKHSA

Usually inhibition stands for the change of the read-out against control, counted positive when it falls. As to `COc1cc2nccc(Oc3ccc(NC(=O)C4(C(=O)Nc5ccc(F)cc5)CC4)cc3)c2cc1OC` [Cabozantinib, reference compound], the inhibition at 1 µM on MAP4K3 (GLK) worked out at 48%; on MUSK, 92%; on PIK3CG (p110 gamma) it was 14%; on TEC, 5%.

For the molecule `COc1cc2nccc(Oc3ccc(NC(=O)C4(NC(=O)c5ccc(F)cc5)CC4)cc3F)c2cc1OC` [Cbo-02, N-(1-((4-((6,7-diMethoxyquinolin-4-yl)oxy)-3-fluorophenyl)carbamoyl)cyclopropyl)-4-fluorobenzamide], the inhibition at 1 µM is 43% at MAP4K3 (GLK), 31% on MUSK, 4% at PIK3CG (p110 gamma) and 29% on TEC.

For `COc1cc2nccc(Oc3ccc(NC(=O)C4(NC(=O)c5ccc(F)cc5)CC4)cc3F)c2cc1Oc1ccc(N)cc1F` [Cbo-10], the inhibition at 1 µM on MAP4K3 (GLK) came out at 59%; on MUSK, 68%; at PIK3CG (p110 gamma), 9%; at TEC, 80%.

Regarding `COc1cc2nccc(Oc3ccc(NC(=O)C4(NC(=O)c5ccc(F)cc5)CC4)cc3F)c2cc1Oc1c(F)cc(N)cc1F` [Cbo-14], the inhibition at 1 µM on MAP4K3 (GLK) stood at 58%; on MUSK, 76%; on PIK3CG (p110 gamma), 6%; at TEC it was 77%.

As for `COc1cc2nccc(Oc3ccc(NC(=O)C4(C(=O)Nc5ccc(F)cc5)CC4)cc3F)c2cc1Oc1ccc(N)cc1F` [Cbo-23], the inhibition at 1 µM at MAP4K3 (GLK) was 41%; at MUSK it was 85%; on PIK3CG (p110 gamma) it was -7%; at TEC, 37%.
